According to patent US10980835B2, “Arsenic trioxide for treatment of PIN1-associated disorders” (Beth Israel Deaconess Medical Center, Inc., priority 2016, dated 2021):

Legend:
[1] = test system: triple negative breast cancer PDX; assay: Triple negative breast cancer patient derived xenograft (PDX) mouse model; format: in vivo
Text: FIGS. 18A-D show the effect of ATO and ATRA on a triple negative breast cancer patient-derived xenograft (PDX) mouse model, where treatment was initiated two weeks after implantation. FIG. 18A is a graph showing that combination treatment with ATRA and ATO results in greater tumor growth inhibition than treatment with either ATRA or ATO, alone. FIG. 18B is image of the excised tumors corresponding to FIG. 18A. FIG. 18C is a graph depicting tumor volume corresponding to the tumors picture in FIG. 18B.
FIGS. 19A-C show the effect of ATO and ATRA on a triple negative breast cancer PDX mouse model, where treatment was initiated when the tumor volume reached to 250 mm^3. FIG. 19A is a graph showing that combination treatment with ATRA and ATO results in greater tumor growth inhibition than treatment with either ATRA or ATO, alone. FIG. 19B is image of the excised tumors corresponding to FIG. 19A. FIG. 19C is a graph depicting tumor volume corresponding to the tumors picture in FIG. 19B.
FIGS. 20A-D show the effect of ATO and ATRA on a triple negative breast cancer PDX mouse model, where treatment was initiated when the tumor volume reached to 300 mm^3. FIG. 20A is a graph showing that combination treatment with ATRA and ATO results in greater tumor growth inhibition than treatment with either ATRA or ATO, alone. FIG. 20B is image of the excised tumors corresponding to FIG. 20A. FIG. 20C is a graph depicting tumor volume corresponding to the tumors picture in FIG. 20B. FIG. 20D is a western blot depicting a decrease in Pin1 expression following treatment with either ATO, ATRA, or a combination of ATO and ATRA.
(§1) A PDX mouse model of triple negative breast cancer was treated with either ATO (2 mg/kg every other day), ATRA (5 mg 21 day slow releasing pellets), or a combination of both ATO (2 mg/kg every other day) and ATRA (5 mg 21 day slow releasing pellets). Treatment was initiated two weeks after implantation. Tumor growth was measured weekly for 7 weeks.
as §1, with “Furthermore, a PDX” for “A PDX”, “initiated when the tumor volume reached 250 mm^3.” for “initiated two weeks after implantation.”, “for 6” for “for 7”
as §1, with “Finally, a PDX” for “A PDX”, “initiated when the tumor volume reached 300 mm^3.” for “initiated two weeks after implantation.”, “for 6” for “for 7”, “weeks. […]” for “weeks.”

231 and 159 cells = assay: FACS of breast TIC-enriched CD24-CD44+ or ALDH+ population; format: cell-based, human
Procedure: (§2) To examine the effects of ATO and ATRA on TICs in TNBC, 231 and 159 cells were treated with ATO (1 μM), ATRA (10 μM) or their combination, followed by assaying the breast TIC-enriched CD24-CD44+ or ALDH+ population using fluorescence-activated cell sorting (FACS). […] To examine the effects of ATO and ATRA on self-renewal of breast TICs, different TNBC cells were treated with ATO, ATRA or their combination, followed by a serial mammosphere formation assay.

Pin1 = molecular target: T1, Pin1 (Homo sapiens, UniProt Q13526); assay: Pin1 protein levels in triple negative breast cancer cell lines by immunoblotting; format: cell-based; settings: SUM159, Hs578T and MBA-MB-231 cells
T1 construct: followed by assaying Pin1 levels using immunoblotting; endogenous in cells; host or cells: SUM159, Hs578T, MDA-MB-231 (printed MBA-MB-231)
T1 sequence (Q13526 whole entry): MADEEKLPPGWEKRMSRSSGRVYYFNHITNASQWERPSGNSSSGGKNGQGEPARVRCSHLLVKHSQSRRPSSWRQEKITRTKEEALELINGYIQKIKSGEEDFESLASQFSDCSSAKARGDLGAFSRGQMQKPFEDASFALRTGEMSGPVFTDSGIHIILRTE
Text: FIG. 5 is a series of western blots and corresponding graphs of quantified protein expression depicting arsenic trioxide-induce Pin1 degradation in triple-negative breast cancer cell lines (SUM159, Hs578T, and MBA-MB-231).
FIG. 7 is a series of western blots and corresponding graphs of quantified protein expression levels showing that, in triple-negative breast cancer cell lines (SUM159 and Hs578T), arsenic trioxide-induced Pin1 degradation is blocked by the proteasome inhibitor, MG132.
FIG. 8 is a series of western blots and corresponding graphs of quantified protein expression levels showing that all-trans retinoic acid (ATRA) induces Pin1 degradation in triple-negative breast cancer cell lines (SUM159, Hs578T, and MBA-MB-231).
FIG. 9 is a series of western blots and corresponding graphs of quantified protein expression levels depicting decrease in Pin1 protein expression in triple-negative breast cancer cells (SUM159, Hs578T, and MBA-MB-231) following combination treatment with ATO and ATRA, as compared to treatment with either ATO or ATRA, alone. […]
Two different human triple negative breast cancer cell lines (SUM159 and Hs578T) were treated with different concentrations of ATO in the presence of the proteasome inhibitor MG132 or vehicle control DMSO. […] cells were collected and lysed and levels of Pin1 protein expression were quantified by immunoblotting. […]

[2] = test system: MDA-MB-231 breast cancer cell line; assay: Intracellular arsenic levels by ICP-Masspec; format: cell-based, human; settings: MDA-MB-231 cells treated with ATRA, relative to control
Procedure: FIGS. 16A-C are a series of graphs showing that ATRA increases intracellular arsenic concentration measured by ICP-Masspec.
Intracellular arsenic levels were measured by ICP-Masspec in breast cancer cells lines treated with either ATRA, shRNA knockdown of AQP9, or overexpression of AQP9.

[3] = test system: TNBC 231 and 159 cells (breast TICs); assay: Serial mammosphere formation assay; format: cell-based, human; settings: serial propagation M1-M4
Procedure: FIG. 22C is a graph showing that ATO and ATRA co-treatment dramatically reduces tumor growth.
as §2
Breast TICs are notoriously resistant to cytotoxic chemotherapy drugs such as taxol, which is commonly used to treat TNBC. While taxol treatment kills non-TIC cancer cells, it is ineffective against TICs, leading to TIC-enriched taxol-resistant cells. […] Thus, the combination of ATO and ATRA inhibits the growth of taxol-resistant TNBCs. This raised the question of whether the combination of ATO and ATRA could inhibit tumor initiation and growth of breast TICs in vivo. Accordingly, the effects of ATO and ATRA combination therapy on tumor initiation of TNBCs were assayed using a limiting dilution assay in mice, a standard approach to determine tumor initiation.

[4] = test system: Human triple negative breast cancer MBA-MB-231 cells; assay: Mouse orthotopic implantation model with MBA-MB-231 cells; format: in vivo; settings: nude mice, ATO 2 mg/kg every other day, ATRA 5 mg 21 day pellets, 6 weeks
Text: FIG. 17A is a graph showing that combination treatment with ATRA and ATO results in greater tumor growth inhibition than treatment with either ATRA or ATO, alone. FIG. 17B is image of the excised tumors corresponding to FIG. 17A. FIG. 17C is a graph depicting tumor volume corresponding to the tumors pictured in FIG. 17B.
Human triple negative breast cancer MBA-MB-231 cells were orthotopically implanted into nude mice. A week after tumor growth was notable, mice were randomly grouped and treated with either ATO (2 mg/kg every other day), ATRA (5 mg 21 day slow releasing pellets), or a combination of both ATO (2 mg/kg every other day) and ATRA (5 mg 21 day slow releasing pellets). Tumor growth was measured weekly for 6 weeks.

Hs578t and SUM159 cells = assay: FACS quantification of ALDH+ cells; format: cell-based, human
Text: (§3) FIG. 11 is a series of plots generated by fluorescence-activated cell sorting (FACS) and a corresponding graph that depicts the quantification of aldehyde dehydrogenase-positive (ALDH+) cells following treatment with ATRA, ATO, or a combination of ATRA and ATO. ALDH is tumor marker associated with breast cancer stem cells. The fraction of ALDH+ cells is decreased in Hs578T cells treated with ATRA+ATO, as compared to those treated with either ATRA or ATO, alone.
as §3, with “12” for “11”, “SUM159” for “Hs578T”
Two different human triple negative breast cancer cell lines (Hs578t and SUM159) were treated with ATRA, ATO, or a combination of ATRA and ATO. Fluorescence-activated cell sorting (FACS) was used to quantify the proportion of aldehyde dehydrogenase-positive (ALDH+) cells following treatment. […]

CC1=C(/C=C/C(C)=C/C=C/C(C)=C/C(=O)O)C(C)(C)CCC1 [ATRA, all-trans retinoic acid]
Pin1 levels in tumors ([1]; treatment initiated at 300 mm^3): decreased | Tumor growth ([1]; treatment initiated two weeks after implantation, 7 weeks): inhibited tumor growth | Tumor growth ([1]; treatment initiated when tumor volume reached 250 mm^3, 6 weeks): inhibited tumor growth | Tumor growth ([1]; treatment initiated when tumor volume reached 300 mm^3, 6 weeks): inhibited tumor growth | Breast TIC-enriched CD24-CD44+ or ALDH+ population (231 and 159 cells): significantly reduced breast TIC-enriched population | Pin1 levels (degradation) (Pin1): induced Pin1 degradation in a dose-dependent manner | Intracellular arsenic concentration [2]: increase intracellular arsenic concentrations relative to control | Mammosphere formation efficiency [3]: strongly impaired mammosphere formation efficiency at M2-3 | Tumor growth [4]: inhibited tumor growth | Proportion of ALDH+ cells (Hs578t and SUM159 cells): decreased the proportion of ALDH+ cells
